The record followed here is US11760733B2, “Small molecule regulators of mitochondrial fusion and methods of use thereof” (Washington University, priority 2017, dated 2023).

SMILES strings stand for the structures. Entries after “also recorded” stand apart in the source; their conditions may differ.

In one series the test system is Mfn2 null MEFs. As to the kind of experiment: Mitochondrial elongation (aspect ratio) fusogenicity assay. Format: cell-based, mouse.
Settings: not given
The source says: A cultured murine embryonic fibroblast assay system was used in which mitochondrial elongation (an increase in aspect ratio) reflects enhanced mitochondrial fusion.
A pharmacophore model was generated based on the interactions of HR1 and HR2 domains in the calculated structural model of Mfn2 in the closed conformation. The key features included hydrophobic interactions involving Mfn2 HR1: Val372 and Met376, and aromatic interactions and hydrogen bonding involving Mfn2 HR1 His380. […] A library comprising ˜14 million commercially available compounds was prepared in silico and evaluated using PHASE to fit these criteria. Top ranked hits were clustered, and filtered based on pharmacological properties using Qikprop. The top 55 (see TABLE 4) commercially available small molecules conforming to the model were selected for functional screening and purchased in 1 mg aliquots. Each compound was dissolved to a stock concentration of 10 mM in DMSO and applied to Mfn2 null MEFs overnight at a final concentration of 1 mM. […] Images were acquired by confocal microscopy. Each compound was scored for fusogenicity (see e.g., FIG. 24A) and % cell death (see e.g., FIG. 24B).
Wild-type MEFs were prepared from E10.5 c57/bl6 mouse embryos. […] MEFs were subcultured in DMEM (4.5 g/L glucose) plus 10% fetal bovine serum, 1× nonessential amino acids, 2 mM L-glutamine, 100U/ml penicillin and 100 ug/ml streptomycin.
Cells were excited with 408 nm (Hoechst), […] (MitoTracker Green and Calcein AM, GFP), or 637 nm (TMRE, MitoTracker Orange, Ethidium homodimer-1, and AF594-Dextran) laser diodes. For mitochondrial elongation studies mitochondrial aspect ratio (long axis/short axis) was calculated using automated edge detection and Image J software. Mitochondrial depolarization was calculated as % of green mitochondria visualized on MitoTracker Green and TMRE merged images, expressed as green/(green+yellow mitochondria)×100.
Regarding `O=C1CC(SCCc2nc3ccccc3[nH]2)C(=O)N1c1cccc(F)c1` (centres unmarked) [D9], the “fusogenic activity (mitochondrial elongation), in words” value is “no true fusogenic activity; also recorded: failed validation in the secondary screen”.

Staying with this series, now noted: Mus musculus; read-out: % long compare to B.
As for `CCn1c(SCC(=O)Nc2sc3c(c2C(N)=O)CCC3)nnc1-c1ccc(Cl)cc1` [1-A1, 2-(2-{[5-(4-chlorophenyl)-4-ethyl-4H-1,2,4-triazol-3-yl]sulfanyl}acetamido)-4H,5H,6H-cyclopenta[b]thiophene-3-carboxamide], the Emax was determined as 11%.
Still for that read-out and setting: the result for `NC(=O)c1c(NC(=O)CSc2nnc(-c3ccccc3F)n2C2CC2)sc2c1CCC2` [1-A2, 2-(2-{[4-cyclopropyl-5-(2-fluorophenyl)-4H-1,2,4-triazol-3-yl]sulfanyl}acetamido)-4H,5H,6H-cyclopenta[b]thiophene-3-carboxamide] reads -23%; that for `CCn1c(SC(C)C(=O)Nc2sc3c(c2C(N)=O)CCC3)nnc1-c1ccoc1C` (centres unmarked) [1-A6, 2-(2-{[4-ethyl-5-(2-methylfuran-3-yl)-4H-1,2,4-triazol-3-yl]sulfanyl}propanamido)-4H,5H,6H-cyclopenta[b]thiophene-3-carboxamide], -31%; that for `COCCn1c(SC(C)C(=O)Nc2sc3c(c2C(N)=O)CCC3)nnc1-c1ccncc1` (centres unmarked) [1-B12, 2-(2-{[4-(2-methoxyethyl)-5-(pyridin-4-yl)-4H-1,2,4-triazol-3-yl]sulfanyl}propanamido)-4H,5H,6H-cyclopenta[b]thiophene-3-carboxamide], -1%.
Take `Cc1ccc(-n2c(C)nnc2SCC(=O)Nc2sc3c(c2C(N)=O)CCCC3)cc1` [1-D3, 2-(2-{[5-methyl-4-(4-methylphenyl)-4H-1,2,4-triazol-3-yl]sulfanyl}acetamido)-4,5,6,7-tetrahydro-1-benzothiophene-3-carboxamide]: the Emax stood at 1%.
Consider `CC1CCc2c(sc(NC(=O)CSc3nnc(C4CC4)n3-c3ccccc3)c2C(N)=O)C1` (centres unmarked) [1-D5, 2-{2-[(5-cyclopropyl-4-phenyl-4H-1,2,4-triazol-3-yl)sulfanyl]acetamido}-6-methyl-4,5,6,7-tetrahydro-1-benzothiophene-3-carboxamide], for which the Emax stood at 2%.
With `Cc1occc1-c1nnc(SCC(=O)Nc2sc3c(c2C(N)=O)CCC3)n1-c1ccccc1` [1-D10, 2-(2-{[5-(2-methylfuran-3-yl)-4-phenyl-4H-1,2,4-triazol-3-yl]sulfanyl}acetamido)-4H,5H,6H-cyclopenta[b]thiophene-3-carboxamide], the Emax amounted to 17%.
For `Cc1ccccc1-n1c(SCC(=O)Nc2sc3c(c2C(N)=O)CCCC3)nnc1-c1cccnc1` [1-E12, 2-(2-{[4-(2-methylphenyl)-5-(pyridin-3-yl)-4H-1,2,4-triazol-3-yl]sulfanyl}acetamido)-4,5,6,7-tetrahydro-1-benzothiophene-3-carboxamide], the Emax is -3%.
On the same count and under the same terms, as for `NC(=O)c1c(NC(=O)CSc2nnc(-c3cccnc3)n2-c2ccccc2)sc2c1CCCC2` [1-G3, 2-(2-{[4-phenyl-5-(pyridin-3-yl)-4H-1,2,4-triazol-3-yl]sulfanyl}acetamido)-4,5,6,7-tetrahydro-1-benzothiophene-3-carboxamide], the figure is 4%; as for `NC(=O)c1c(NC(=O)CSc2nnc3n2CCCCC3)sc2c1CCCC2` [1-G10, 2-(2-{5H,6H,7H,8H,9H-[1,2,4]triazolo[4,3-a]azepin-3-ylsulfanyl}acetamido)-4,5,6,7-tetrahydro-1-benzothiophene-3-carboxamide], -3%.
For the molecule `Cc1ccccc1-n1c(SCC(=O)Nc2sc3c(c2C(N)=O)CCC3)nnc1-c1ccncc1` [1-H1, 2-(2-{[4-(2-methylphenyl)-5-(pyridin-4-yl)-4H-1,2,4-triazol-3-yl]sulfanyl}acetamido)-4H,5H,6H-cyclopenta[b]thiophene-3-carboxamide], the Emax was -3%.
`Cn1c(SCC(=O)Nc2sc3c(c2C(N)=O)CCC3)nnc1-c1ccc(Cl)cc1` [1-H2, 2-(2-{[5-(4-chlorophenyl)-4-methyl-4H-1,2,4-triazol-3-yl]sulfanyl}acetamido)-4H,5H,6H-cyclopenta[b]thiophene-3-carboxamide]: the Emax is 0%.
For `NC(=O)c1c(NC(=O)CSc2nnc(C3CC3)n2C2CC2)sc2c1CCCC2` [2-A2, 2-{2-[(dicyclopropyl-4H-1,2,4-triazol-3-yl)sulfanyl]acetamido}-4,5,6,7-tetrahydro-1-benzothiophene-3-carboxamide], the Emax came out at 4%.
On to `CC1CCCCC1NC(=O)NCCSCc1ccccc1` (centres unmarked) [A10, 1-[2-(benzylsulfanyl)ethyl]-3-(2-methylcyclohexyl)urea], for which the Emax was 72%.
`O=C(Nc1cc(CSCCOC(=O)C2C3CCCCC32)ccn1)C1C2CCCCC21` (centres unmarked) [A12, 2-{[(2-{bicyclo[4.1.0]heptane-7-amido}pyridin-4-yl)methyl]sulfanyl}ethyl bicyclo[4.1.0]heptane-7-carboxylate]: the Emax was 31%.
`CC(c1cccc([N+](=O)[O-])c1)N(C)CC(=O)NCCSCc1ccccc1C#N` (centres unmarked) [B05, N-(2-{[(2-cyanophenyl)methyl]sulfanyl}ethyl)-2-{methyl[1-(3-nitrophenyl)ethyl]amino}acetamide]: the Emax is 15%.
For the molecule `Cc1cccc(NC(=O)CSCC(=O)N(Cc2ccc(N(C)C)cc2)C(C)C)c1` [B12, N-{[4-(dimethylamino)phenyl]methyl}-2-({[(3-methyl-phenyl)carbamoyl]methyl}sulfanyl)-N-(propan-2-yl)acetamide], the Emax is 26%.

Still in this series, the particulars now being: rank by aspect ratio among 44 soluble compounds.
Consider `CC(c1cccc([N+](=O)[O-])c1)N(C)CC(=O)NCCSCc1ccccc1C#N` (centres unmarked) [drawing 250], for which the “Fusogenicity Rank” value is given as 16.

System in another series: not listed separately
The series is described as follows: Solubility of library compounds in DMSO stock. In kind it is physicochemical. Particulars: stock concentration of 10 mM in DMSO. The method, then:
A pharmacophore model was generated based on the interactions of HR1 and HR2 domains in the calculated structural model of Mfn2 in the closed conformation. The key features included hydrophobic interactions involving Mfn2 HR1: Val372 and Met376, and aromatic interactions and hydrogen bonding involving Mfn2 HR1 His380. […] A library comprising ˜14 million commercially available compounds was prepared in silico and evaluated using PHASE to fit these criteria. Top ranked hits were clustered, and filtered based on pharmacological properties using Qikprop. The top 55 (see TABLE 4) commercially available small molecules conforming to the model were selected for functional screening and purchased in 1 mg aliquots. Each compound was dissolved to a stock concentration of 10 mM in DMSO and applied to Mfn2 null MEFs overnight at a final concentration of […]. Eleven of the library members were not soluble in DMSO at the required concentration. The 44 fully soluble compounds were screened in groups of 6 at a time for cytotoxicity (calcein AM/ethidium homodimer staining; ThermoFisher LIVE/DEAD Assay cat # L3224) and fusogenicity (increase in mitochondrial aspect ratio; MitoTracker Orange staining) compared to cells treated overnight with […] of the parent HR1 367-384 mitofusin agonist peptide (positive control) or vehicle (DMSO). Images were acquired by confocal microscopy. Each compound was scored for fusogenicity (see e.g., FIG. 24A) and % cell death (see e.g., FIG. 24B). Pharmacophore model fit generally correlated with actual fusogenic activity (Pearson correlation coefficient r=0.214; see e.g., FIG. 24A, inset; TABLE 4).
`CC(=O)NC12CC3CC(C1)CC(C(=O)NCCSCc1ccc(C)cc1)(C3)C2` [3-acetamido-N-(2-{[(4-methylphenyl)methyl]sulfanyl}ethyl)adamantane-1-carboxamide]: the “Solubility in DMSO” value was “Insoluble”.
As for `Cc1ccc(C(=O)C(C)Sc2nnc3c(=O)n(-c4ccccc4)ccn23)cc1C` (centres unmarked) [3-{[1-(3,4-dimethylphenyl)-1-oxopropan-2-yl]sulfanyl}-7-phenyl-7H,8H-[1,2,4]triazolo[4,3-a]pyrazin-8-one], the “Solubility in DMSO” value is “Insoluble”.
Still for that read-out and setting: as for `Cc1ccc(C(=O)C(C)Sc2nnc3c(=O)n(-c4ccc(Br)cc4)ccn23)cc1C` (centres unmarked) [7-(4-bromophenyl)-3-{[1-(3,4-dimethylphenyl)-1-oxopropan-2-yl]sulfanyl}-7H,8H-[1,2,4]triazolo[4,3-a]pyrazin-8-one], the entry is “Insoluble”.
`COc1cc(Cl)c(C)cc1N1C(=O)[C@@H]2C[C@H]1CN2Cc1cccn1-c1ncccn1` [(1S,4S)-2-(4-chloro-2-methoxy-5-methylphenyl)-5-{[1-(pyrimidin-2-yl)-1H-pyrrol-2-yl]methyl}-2,5-diazabicyclo[2.2.1]heptan-3-one]: the “Solubility in DMSO” value is on record as “Insoluble”.
Same read-out and setting: the result for `Cc1ccc(CSCCNC(=O)C2CCN(c3ccc4nnc(C(F)(F)F)n4n3)CC2)cc1` [N-(2-{[(4-methylphenyl)methyl]sulfanyl}ethyl)-1-[3-(trifluoromethyl)-[1,2,4]triazolo[4,3-b]pyridazin-6-yl]piperidine-4-carboxamide] reads “Insoluble”.
As to `CC(Sc1nc(C2CC2)nc2c1c(=O)[nH]c(=O)n2C1CC1)C(=O)NCC1CCCCC1` (centres unmarked) [N-(cyclohexylmethyl)-2-({2,8-dicyclopropyl-5,7-dioxo-5H,6H,7H,8H-pyrimido[4,5-d][1,3]diazin-4-yl}sulfanyl)propanamide], the “Solubility in DMSO” value is listed as “Insoluble”.
Turning to `Cc1ccc(SC(C)C(=O)Nc2ccc(NS(=O)(=O)c3ccc4c(c3)OCCCO4)cc2)cc1` (centres unmarked) [N-[4-(3,4-dihydro-2H-1,5-benzodioxepine-7-sulfonamido)phenyl]-2-[(4-methylphenyl)sulfanyl]propanamide], the “Solubility in DMSO” value was “Insoluble”.
